Source: patent publication US20120220461A1, “CRYSTAL FORMS OF SULFONYLUREA COMPOUND AND METHOD FOR PRODUCING THE SAME” (NISSAN CHEMICAL INDUSTRIES, LTD., priority 2009, published 2012)

Experiment: Change of crystal form by heating, friction or suspension in a solvent
Format: physicochemical
Text: In the present invention, for the discrimination of the crystal form, a powder X-ray diffraction measurement, a differential thermal analysis, ^13C CP/TOSS NMR, a Raman spectroscopy, and the like are effective, however, the method for the discrimination is not limited to these measurement methods.
• Apparatus: MXLabo (manufactured by Mac Science Corporation (present: Bruker AXS, Inc.)) • Ray source: Cu • Wavelength: 1.54056A • Goniometer: vertical-type goniometer • Tube voltage: 40.0 kV • Tube current: 30 mA • Measuring method: continuous method • Data range: 3.0400 to 40.0000 deg • Scanning axis: 2θ/θ • Sampling interval: 0.0400 deg • Scanning rate: 3.600 deg/min. • Emission slit: 1.00 deg • Scattering slit: 1.00 deg • Receiving slit: 0.15 mm • RSM: 0.80 mm
• Apparatus: TG 8120 (manufactured by Rigaku Corporation) • Temperature elevation: 20° C. to 300° C. at an elevation rate of 5° C./min • Atmosphere: Air • Reference: Al2O3 • Vessel: Al vessel • Sampling: 1 sec

change of crystal form by heating or friction | change of crystal form by heating | Structure (SMILES) | change of crystal form on suspending in a solvent and stirring (suspended in a solvent, stirred)
not observed | – | COc1cc(OC)nc(NC(=O)NS(=O)(=O)c2c(C3=NOCC(C)O3)c(Cl)nn2C)n1 (stereo not shown) [crystal form A, 3-chloro-N-(4,6-dimethoxypyrimidine-2-ylcarbamoyl)-1-methyl-4-(5-methyl-5,6-dihydro-1,4,2-dioxazine-3-yl)-1H-pyrazole-5-sulfonamide] | –
– | not observed | COc1cc(OC)nc(NC(=O)NS(=O)(=O)c2c(C3=NOCC(C)O3)c(Cl)nn2C)n1 (stereo not shown) [crystal form B, 3-chloro-N-(4,6-dimethoxypyrimidine-2-ylcarbamoyl)-1-methyl-4-(5-methyl-5,6-dihydro-1,4,2-dioxazine-3-yl)-1H-pyrazole-5-sulfonamide] | transits to be converted into the crystal form A
transits to the crystal form A or B | – | COc1cc(OC)nc(NC(=O)NS(=O)(=O)c2c(C3=NOCC(C)O3)c(Cl)nn2C)n1 (stereo not shown) [crystal form C, 3-chloro-N-(4,6-dimethoxypyrimidine-2-ylcarbamoyl)-1-methyl-4-(5-methyl-5,6-dihydro-1,4,2-dioxazine-3-yl)-1H-pyrazole-5-sulfonamide] | –
– | transits to the crystal form A | COc1cc(OC)nc(NC(=O)NS(=O)(=O)c2c(C3=NOCC(C)O3)c(Cl)nn2C)n1 (stereo not shown) [crystal form D, 3-chloro-N-(4,6-dimethoxypyrimidine-2-ylcarbamoyl)-1-methyl-4-(5-methyl-5,6-dihydro-1,4,2-dioxazine-3-yl)-1H-pyrazole-5-sulfonamide] | –
transits to the crystal form A | – | COc1cc(OC)nc(NC(=O)NS(=O)(=O)c2c(C3=NOCC(C)O3)c(Cl)nn2C)n1 (stereo not shown) [crystal form E, 3-chloro-N-(4,6-dimethoxypyrimidine-2-ylearbamoyl)-1-methyl-4-(5-methyl-5,6-dihydro-1,4,2-dioxazine-3-yl)-1H-pyrazole-5-sulfonamide] | –
transits to the crystal form A | – | COc1cc(OC)nc(NC(=O)NS(=O)(=O)c2c(C3=NOCC(C)O3)c(Cl)nn2C)n1 (stereo not shown) [crystal form F, 3-chloro-N-(4,6-dimethoxypyrimidine-2-ylcarbamoyl)-1-methyl-4-(5-methyl-5,6-dihydro-1,4,2-dioxazine-3-yl)-1H-pyrazole-5-sulfonamide] | –
